Laboratory results as given in US20200171034A1, “Methods Of Treating Follicular Lymphoma” (Janssen Biotech, Inc., priority 2018, published 2020).

System: relapsed/refractory (R/R) follicular lymphoma (FL)
Assay: DAWN study (NCT01779791): phase 2, single-arm ibrutinib monotherapy
Type: in vivo, humans
Details: patients with R/R FL, ibrutinib 560 mg once daily
Description: Detailed methodology for the DAWN trial is published in Gopal A K, et al. J Clin Oncol. 2018; 36:2405-2412. […] The primary end point was overall response rate (ORR=complete response [CR]+partial response [PR]), assessed by an independent review committee using the International Working Group Revised Response Criteria for Malignant Lymphoma.

## C=CC(=O)N1CCC[C@@H](n2nc(-c3ccc(Oc4ccccc4)cc3)c3c(N)ncnc32)C1 [ibrutinib, Ibrutinib]
  duration of response (median) in responders: 19.4 months
Independent review committee, 95% CI 13.7-29.7
  overall response rate (ORR = complete response + partial response): 20.9%
